{
  "source": "paper PMC7125515",
  "about": "(Bioorganic & Medicinal Chemistry, 2011)",
  "key": {"[1]": {"biological_target": "hypoxanthine-guanine-xanthine phosphoribosyltransferase (HGXPRT)", "conditions": "read-out: Ki, HGXPRT; Plasmodium falciparum enzyme; cited from earlier work"}, "herpes- and poxviruses": {"system": "herpes- and poxviruses", "assay": "organism not typed", "assay_type": "cell-based", "conditions": "for Activity against herpes- and poxviruses (in words): DNA viruses: VACV, HSV-1, HSV-2, TK- HSV-1, VZV; for Activity against herpes- and poxviruses (in words) / Selectivity index (ratio CC50:EC50), HCMV: HCMV; for Selectivity index (ratio CC50:EC50), HCMV / Selectivity index (ratio CC50:EC50), HSV / Selectivity index (ratio CC50:EC50), VZV: CC50 in HEL; for Selectivity index (ratio CC50:EC50), VZV: different VZV strains"}, "[2]": {"system": "Vaccinia virus Lederle strain", "assay_type": "cell-based"}},
  "note": "Entries after “also recorded” stand apart in the source; their conditions may differ.",
  "data": [
    {"smiles": "O=c1[nH]cnc2c1ncn2CCOCCP(=O)(O)O", "note": "[PEEHx]", "values": [
      {"measurement": "Ki", "setting": "[1]", "result": 0.3, "unit": "µM"}
    ]},
    {"smiles": "CC(CP(=O)(O)O)OCCn1cnc2c(N)nc(N)nc21", "note": "(centres unmarked) [Compound 14, 9-[2-(1-Phosphonopropan-2-yloxy)ethyl]diaminopurine]", "values": [
      {"measurement": "Activity against herpes- and poxviruses (in words)", "setting": "herpes- and poxviruses", "result": "inactive"}
    ]},
    {"smiles": "Nc1nc2c(ncn2CCOCCP(=O)(O)O)c(=O)[nH]1", "note": "[PEEG]", "values": [
      {"measurement": "Ki", "setting": "[1]", "result": 0.1, "unit": "µM"}
    ]},
    {"smiles": "Nc1ncnc2c1ncn2CCOC(CO)CP(=O)(O)O", "note": "(centres unmarked) [Compound 9e, 9-[2-(3-Hydroxy-1-phosphonopropan-2-yloxy)ethyl]adenine]", "values": [
      {"measurement": "Activity against herpes- and poxviruses (in words)", "setting": "herpes- and poxviruses", "result": "inactive; also recorded: annihilated the anti-DNA virus activity"}
    ]},
    {"smiles": "Nc1ccn(C[C@@H](CO)OCP(=O)(O)O)c(=O)n1.O.O", "note": "[Cidofovir, reference compound]", "values": [
      {"measurement": "Selectivity index (ratio CC50:EC50), HCMV", "setting": "herpes- and poxviruses", "result": "195–282"},
      {"measurement": "Selectivity index (ratio CC50:EC50), HSV", "setting": "herpes- and poxviruses", "result": "322–363"},
      {"measurement": "Selectivity index (ratio CC50:EC50), VZV", "setting": "herpes- and poxviruses", "result": "880–2540"}
    ]},
    {"smiles": "Cc1cn(CCOC(CO)CP(=O)(O)O)c(=O)[nH]c1=O", "note": "(centres unmarked) [Compound 15e, 9-[2-(3-Hydroxy-1-phosphonopropan-2-yloxy)ethyl]thymine]", "values": [
      {"measurement": "Activity against herpes- and poxviruses (in words)", "setting": "herpes- and poxviruses", "result": "inactive"}
    ]},
    {"smiles": "Nc1ncnc2c1ncn2CCOC(COCc1ccccc1)CP(=O)(O)O", "note": "(centres unmarked) [Compound 9d, 9-[2-(3-Benzyloxy-1-phosphonopropan-2-yloxy)ethyl]adenine]", "values": [
      {"measurement": "Activity against herpes- and poxviruses (in words)", "setting": "herpes- and poxviruses", "result": "inactive"}
    ]},
    {"smiles": "CC(CP(=O)(O)O)OCCn1cnc2c(N)ncnc21", "note": "(centres unmarked) [Compound 9a, 9-[2-(1-Phosphonopropan-2-yloxy)ethyl]adenine]", "values": [
      {"measurement": "Selectivity index (ratio CC50:EC50), HCMV", "setting": "herpes- and poxviruses", "result": "14–15"},
      {"measurement": "Selectivity index (ratio CC50:EC50), HSV", "setting": "herpes- and poxviruses", "result": "6–10"},
      {"measurement": "Selectivity index (ratio CC50:EC50), VZV", "setting": "herpes- and poxviruses", "result": "120–190"},
      {"measurement": "EC50", "setting": "herpes- and poxviruses; read-out: EC50 values against different human herpesviruses (range)", "result": "0.07 to 2.3", "unit": "µM"},
      {"measurement": "Selectivity index (ratio CC50:EC50), vaccinia virus", "setting": "[2]", "result": "< 1"}
    ]}
  ]
}
